Reference: patent US11969428B2, “Methods and pharmaceutical compositions for treating lymphoid malignancy” (priority 2011, dated 2024)

What was measured:
Test in all cases: Ambit KinomeScan screening
Format in all cases: binding
Settings in all cases: CAL-130 10 μM
WEE1 = target: T1, WEE1 (Homo sapiens, UniProt P30291)
T1 construct: purchased Ambit (KinomeScan screening service)
Protocol: (§1) CAL-130 (10 μM) was evaluated for its ability to prevent tagged kinases from interacting with immobilized “bait” ligand (Karaman et al., 2008). Results are reported as “% of control binding”, where lower numbers indicate stronger interactions with the tagged kinase. Values of >35% are considered “no hits”. PI3Kδ had the lowest percentage of control binding at 0.2% followed by PI3Kγ at 3.2% (See Table 1 below). These values indicate a high probability of a potent interaction. 353 kinases were assessed in the screen (Table 2).

SNARK = target: T2, SNARK (Homo sapiens, UniProt Q9H093)
T2 construct: tag, kind not specified; purchased Ambit (KinomeScan screening service)
Protocol: as §1

ZAK = target: T3, ZAK (Homo sapiens, UniProt Q9NYL2)
T3 construct: purchased Ambit (KinomeScan screening service)
Protocol: as §1

ARK5 = target: T4, ARK5 (Homo sapiens, UniProt O60285)
T4 construct: purchased Ambit (KinomeScan screening service)
Protocol: as §1

INSRR = target: T5, INSRR (Homo sapiens, UniProt P14616)
T5 construct: Ambit (KinomeScan screening)
Protocol: as §1

PKAC-α = target: T6, PKAC-α (Homo sapiens, UniProt P17612)
T6 construct: unspecified tag; purchased Ambit (KinomeScan screening panel)
Protocol: as §1

PIK3CD = target: T7, PIK3CD (Homo sapiens, UniProt O00329)
T7 construct: unspecified tag; purchased Ambit (KinomeScan screening panel)
Protocol: as §1

CDK5 = target: T8, CDK5 (Homo sapiens, UniProt Q00535)
T8 construct: purchased Ambit (KinomeScan screening)
Protocol: as §1

PRKCQ = target: T9, PRKCQ (Homo sapiens, UniProt Q04759)
T9 construct: purchased Ambit (KinomeScan screening service)
Protocol: as §1

MAPKAPK5 = target: T10, MAPKAPK5 (Homo sapiens, UniProt Q8IW41)
T10 construct: Ambit (KinomeScan screening)
Protocol: as §1

AMPK-α1 = target: T11, AMPK-α1 (Homo sapiens, UniProt Q13131)
T11 construct: purchased Ambit (KinomeScan screening)
Protocol: as §1

RIPK2 = target: T12, RIPK2 (Homo sapiens, UniProt O43353)
T12 construct: unspecified tag (tagged kinase); purchased Ambit (KinomeScan screening)
Protocol: as §1

STK39 = target: T13, STK39 (Homo sapiens, UniProt Q9UEW8)
T13 construct: tag (kind not specified); purchased Ambit (KinomeScan screening service)
Protocol: as §1

PRKG2 = target: T14, PRKG2 (Homo sapiens, UniProt Q13237)
T14 construct: tag (kind not specified); purchased Ambit (KinomeScan screening service)
Protocol: as §1

ERK5 = target: T15, ERK5 (Homo sapiens, UniProt Q13164)
T15 construct: unspecified tag ("tagged kinases"); purchased Ambit (KinomeScan screening service)
Protocol: as §1

BRK = target: T16, BRK (Homo sapiens, UniProt Q13882)
T16 construct: unspecified tag ("tagged kinases"); purchased Ambit (KinomeScan screening)
Protocol: as §1

BIKE = target: T17, BIKE (Homo sapiens, UniProt Q9NSY1)
T17 construct: purchased Ambit (KinomeScan screening service)
Protocol: as §1

HIPK2 = target: T18, HIPK2 (Homo sapiens, UniProt Q9H2X6)
T18 construct: unspecified tag ('tagged kinases'); purchased Ambit (KinomeScan screening service)
Protocol: as §1

BRAF = target: T19, BRAF (Homo sapiens, UniProt P15056)
T19 construct: unspecified tag ("tagged kinases"); purchased Ambit (KinomeScan screening)
Protocol: as §1

FLT1 = target: T20, FLT1 (Homo sapiens, UniProt P17948)
T20 construct: unspecified tag; purchased Ambit (KinomeScan screening service)
Protocol: as §1

NEK5 = target: T21, NEK5 (Homo sapiens, UniProt Q6P3R8)
T21 construct: unspecified tag; purchased Ambit (KinomeScan screening panel)
Protocol: as §1

MST4 = target: T22, MST4 (Homo sapiens, UniProt Q9P289)
T22 construct: unspecified tag; purchased Ambit (KinomeScan screening panel)
Protocol: as §1

LTK = target: T23, LTK (Homo sapiens, UniProt P29376)
T23 construct: unspecified tag ('tagged kinases'); purchased Ambit (KinomeScan screening service)
Protocol: as §1

MEK1 = target: T24, MEK1 (Homo sapiens, UniProt Q02750)
T24 construct: purchased Ambit (KinomeScan screening)
Protocol: as §1

RPS6KA1 = target: T25, RPS6KA1 (Homo sapiens, UniProt Q15418)
T25 construct: unspecified tag (tagged kinase); purchased Ambit (KinomeScan screening)
Protocol: as §1

EPHA5 = target: T26, EPHA5 (Homo sapiens, UniProt P54756)
T26 construct: purchased Ambit (KinomeScan screening service)
Protocol: as §1

MAK = target: T27, MAK (Homo sapiens, UniProt P20794)
T27 construct: unspecified tag ('tagged kinases'); purchased Ambit (KinomeScan screening service)
Protocol: as §1

NIM1 = target: T28, NIM1 (Homo sapiens, UniProt Q8IY84)
T28 construct: purchased Ambit (KinomeScan screening service)
Protocol: as §1

TLK1 = target: T29, TLK1 (Homo sapiens, UniProt Q9UKI8)
T29 construct: unspecified tag (tagged kinase); purchased Ambit (KinomeScan screening)
Protocol: as §1

MAP3K2 = target: T30, MAP3K2 (Homo sapiens, UniProt Q9Y2U5)
T30 construct: Ambit (KinomeScan screening)
Protocol: as §1

AKT3 = target: T31, AKT3 (Homo sapiens, UniProt Q9Y243)
T31 construct: purchased Ambit (KinomeScan screening)
Protocol: as §1

RIPK4 = target: T32, RIPK4 (Homo sapiens, UniProt P57078)
T32 construct: unspecified tag (tagged kinase); purchased Ambit (KinomeScan screening)
Protocol: as §1

FLT3(ITD) = test system: FLT3(ITD)
Protocol: as §1

ASK2 = target: T33, ASK2 (Homo sapiens, UniProt O95382)
T33 construct: purchased Ambit (KinomeScan screening service)
Protocol: as §1

TGFBR2 = target: T34, TGFBR2 (Homo sapiens, UniProt P37173)
T34 construct: unspecified tag (tagged kinase); purchased Ambit (KinomeScan screening)
Protocol: as §1

SBK1 = target: T35, SBK1 (Homo sapiens, UniProt Q52WX2)
T35 construct: tag, kind not specified; purchased Ambit (KinomeScan screening service)
Protocol: as §1

CAMK2B = target: T36, CAMK2B (Homo sapiens, UniProt Q13554)
T36 construct: purchased Ambit (KinomeScan screening)
Protocol: as §1

T7 sequence (O00329 whole entry): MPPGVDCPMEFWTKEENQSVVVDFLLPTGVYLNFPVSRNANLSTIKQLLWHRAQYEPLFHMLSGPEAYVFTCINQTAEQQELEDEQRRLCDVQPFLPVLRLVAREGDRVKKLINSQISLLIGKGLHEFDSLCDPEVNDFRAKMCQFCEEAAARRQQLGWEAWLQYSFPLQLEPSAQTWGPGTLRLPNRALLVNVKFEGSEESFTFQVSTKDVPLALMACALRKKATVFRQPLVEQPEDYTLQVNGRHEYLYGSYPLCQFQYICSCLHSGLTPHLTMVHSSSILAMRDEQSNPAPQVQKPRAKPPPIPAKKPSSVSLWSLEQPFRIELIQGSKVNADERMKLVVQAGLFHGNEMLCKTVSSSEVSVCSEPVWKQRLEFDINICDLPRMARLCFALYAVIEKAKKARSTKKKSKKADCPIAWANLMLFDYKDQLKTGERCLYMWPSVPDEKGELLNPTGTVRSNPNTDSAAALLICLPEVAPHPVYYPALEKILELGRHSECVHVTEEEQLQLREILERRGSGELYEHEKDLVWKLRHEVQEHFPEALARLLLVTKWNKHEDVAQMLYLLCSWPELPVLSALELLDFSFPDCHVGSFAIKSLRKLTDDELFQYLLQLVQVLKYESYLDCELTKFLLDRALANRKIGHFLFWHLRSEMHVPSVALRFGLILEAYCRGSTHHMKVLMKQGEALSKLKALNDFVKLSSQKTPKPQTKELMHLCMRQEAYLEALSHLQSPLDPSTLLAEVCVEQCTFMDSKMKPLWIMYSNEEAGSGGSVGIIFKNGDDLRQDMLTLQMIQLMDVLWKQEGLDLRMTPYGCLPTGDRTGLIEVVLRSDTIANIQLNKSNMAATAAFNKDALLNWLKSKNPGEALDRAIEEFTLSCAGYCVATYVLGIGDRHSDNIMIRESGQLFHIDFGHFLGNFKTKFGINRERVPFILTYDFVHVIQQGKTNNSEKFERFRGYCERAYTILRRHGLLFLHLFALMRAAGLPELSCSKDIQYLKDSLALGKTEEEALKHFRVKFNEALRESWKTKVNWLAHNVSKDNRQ
T34 sequence (P37173 23-567): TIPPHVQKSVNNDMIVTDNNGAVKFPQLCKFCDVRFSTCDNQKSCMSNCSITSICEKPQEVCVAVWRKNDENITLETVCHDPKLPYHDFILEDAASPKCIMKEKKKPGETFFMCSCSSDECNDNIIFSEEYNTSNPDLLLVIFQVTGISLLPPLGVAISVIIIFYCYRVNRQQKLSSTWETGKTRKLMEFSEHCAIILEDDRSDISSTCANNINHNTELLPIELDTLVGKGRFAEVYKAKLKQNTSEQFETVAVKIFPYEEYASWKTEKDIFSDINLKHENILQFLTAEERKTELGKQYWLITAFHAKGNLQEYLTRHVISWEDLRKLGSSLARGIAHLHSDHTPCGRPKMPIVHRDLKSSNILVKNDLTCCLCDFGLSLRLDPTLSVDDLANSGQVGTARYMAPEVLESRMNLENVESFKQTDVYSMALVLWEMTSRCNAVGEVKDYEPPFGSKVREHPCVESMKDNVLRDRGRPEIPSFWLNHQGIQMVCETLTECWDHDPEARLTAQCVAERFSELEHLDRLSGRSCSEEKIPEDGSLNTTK
T30 sequence (Q9Y2U5 whole entry): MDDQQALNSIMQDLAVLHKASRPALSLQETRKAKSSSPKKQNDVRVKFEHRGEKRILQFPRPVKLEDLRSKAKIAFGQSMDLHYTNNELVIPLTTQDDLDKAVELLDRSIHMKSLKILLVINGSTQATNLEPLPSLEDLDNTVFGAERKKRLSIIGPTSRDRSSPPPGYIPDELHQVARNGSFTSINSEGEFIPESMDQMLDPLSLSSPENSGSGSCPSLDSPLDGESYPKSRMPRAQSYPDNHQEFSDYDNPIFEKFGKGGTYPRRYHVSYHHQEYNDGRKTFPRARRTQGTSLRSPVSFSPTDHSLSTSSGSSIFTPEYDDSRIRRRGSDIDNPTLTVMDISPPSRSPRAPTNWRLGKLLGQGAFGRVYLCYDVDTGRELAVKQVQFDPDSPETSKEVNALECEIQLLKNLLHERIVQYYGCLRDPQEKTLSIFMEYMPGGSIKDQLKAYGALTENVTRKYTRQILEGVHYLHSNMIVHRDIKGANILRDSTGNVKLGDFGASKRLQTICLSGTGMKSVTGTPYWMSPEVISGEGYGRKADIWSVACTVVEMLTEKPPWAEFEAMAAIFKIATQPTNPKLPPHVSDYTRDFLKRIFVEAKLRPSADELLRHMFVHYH
T28 sequence (Q8IY84 whole entry): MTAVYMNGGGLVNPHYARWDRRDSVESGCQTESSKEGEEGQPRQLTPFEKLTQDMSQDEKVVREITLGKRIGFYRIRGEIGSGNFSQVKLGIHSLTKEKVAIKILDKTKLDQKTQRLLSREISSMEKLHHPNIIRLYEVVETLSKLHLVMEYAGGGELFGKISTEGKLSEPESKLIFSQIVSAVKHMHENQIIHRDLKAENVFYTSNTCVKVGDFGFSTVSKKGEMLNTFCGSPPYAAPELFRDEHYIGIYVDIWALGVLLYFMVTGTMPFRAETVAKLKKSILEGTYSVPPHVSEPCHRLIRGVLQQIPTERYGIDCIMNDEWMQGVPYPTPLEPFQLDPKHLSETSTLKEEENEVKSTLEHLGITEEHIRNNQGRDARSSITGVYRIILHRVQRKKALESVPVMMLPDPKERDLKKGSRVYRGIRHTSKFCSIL
T11 sequence (Q13131 whole entry): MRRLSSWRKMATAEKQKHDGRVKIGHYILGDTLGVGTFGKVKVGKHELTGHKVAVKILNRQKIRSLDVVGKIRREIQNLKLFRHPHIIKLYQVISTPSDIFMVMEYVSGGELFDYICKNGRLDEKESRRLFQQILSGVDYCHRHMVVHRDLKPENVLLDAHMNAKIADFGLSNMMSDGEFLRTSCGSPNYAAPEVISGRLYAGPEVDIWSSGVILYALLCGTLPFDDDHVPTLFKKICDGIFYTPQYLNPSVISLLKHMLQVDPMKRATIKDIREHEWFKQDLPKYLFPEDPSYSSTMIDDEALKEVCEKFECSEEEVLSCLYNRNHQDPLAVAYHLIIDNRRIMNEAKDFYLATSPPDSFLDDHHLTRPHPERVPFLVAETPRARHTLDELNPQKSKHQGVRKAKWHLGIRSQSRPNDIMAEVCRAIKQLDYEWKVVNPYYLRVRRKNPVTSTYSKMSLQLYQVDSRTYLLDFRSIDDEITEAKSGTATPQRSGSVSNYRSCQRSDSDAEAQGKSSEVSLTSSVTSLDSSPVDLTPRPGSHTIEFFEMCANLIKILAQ
T12 sequence (O43353 whole entry): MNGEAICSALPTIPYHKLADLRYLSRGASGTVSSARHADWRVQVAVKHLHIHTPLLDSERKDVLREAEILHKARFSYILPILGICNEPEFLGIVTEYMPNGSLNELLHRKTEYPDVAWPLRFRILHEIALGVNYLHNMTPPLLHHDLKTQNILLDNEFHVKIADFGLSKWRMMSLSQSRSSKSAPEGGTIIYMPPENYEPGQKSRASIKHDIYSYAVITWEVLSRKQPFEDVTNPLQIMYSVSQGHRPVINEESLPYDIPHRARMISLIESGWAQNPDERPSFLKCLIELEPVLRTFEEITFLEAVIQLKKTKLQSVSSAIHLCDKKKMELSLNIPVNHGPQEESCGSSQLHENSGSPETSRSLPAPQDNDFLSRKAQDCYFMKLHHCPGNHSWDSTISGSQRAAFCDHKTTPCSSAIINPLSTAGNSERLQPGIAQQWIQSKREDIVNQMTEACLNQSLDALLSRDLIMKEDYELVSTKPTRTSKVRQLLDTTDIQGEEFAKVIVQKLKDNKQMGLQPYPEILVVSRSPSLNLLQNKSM
T21 sequence (Q6P3R8 whole entry): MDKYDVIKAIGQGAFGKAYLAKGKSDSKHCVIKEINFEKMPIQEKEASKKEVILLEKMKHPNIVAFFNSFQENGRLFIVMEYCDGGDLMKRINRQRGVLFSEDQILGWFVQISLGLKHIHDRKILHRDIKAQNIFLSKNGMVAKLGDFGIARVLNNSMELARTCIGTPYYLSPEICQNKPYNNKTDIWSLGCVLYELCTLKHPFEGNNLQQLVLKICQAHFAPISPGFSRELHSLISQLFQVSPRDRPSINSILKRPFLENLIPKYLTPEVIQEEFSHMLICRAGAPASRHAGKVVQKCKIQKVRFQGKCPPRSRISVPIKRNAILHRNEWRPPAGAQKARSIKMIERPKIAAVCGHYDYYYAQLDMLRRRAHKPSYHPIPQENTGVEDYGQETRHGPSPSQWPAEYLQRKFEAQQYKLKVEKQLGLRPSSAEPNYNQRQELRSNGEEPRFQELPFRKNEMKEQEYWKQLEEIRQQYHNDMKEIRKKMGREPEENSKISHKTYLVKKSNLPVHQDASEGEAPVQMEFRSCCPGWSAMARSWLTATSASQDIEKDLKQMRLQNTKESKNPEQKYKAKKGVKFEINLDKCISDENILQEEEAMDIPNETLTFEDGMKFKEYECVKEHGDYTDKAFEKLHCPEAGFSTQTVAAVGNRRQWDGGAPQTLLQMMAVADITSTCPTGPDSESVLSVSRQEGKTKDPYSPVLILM
T16 sequence (Q13882 whole entry): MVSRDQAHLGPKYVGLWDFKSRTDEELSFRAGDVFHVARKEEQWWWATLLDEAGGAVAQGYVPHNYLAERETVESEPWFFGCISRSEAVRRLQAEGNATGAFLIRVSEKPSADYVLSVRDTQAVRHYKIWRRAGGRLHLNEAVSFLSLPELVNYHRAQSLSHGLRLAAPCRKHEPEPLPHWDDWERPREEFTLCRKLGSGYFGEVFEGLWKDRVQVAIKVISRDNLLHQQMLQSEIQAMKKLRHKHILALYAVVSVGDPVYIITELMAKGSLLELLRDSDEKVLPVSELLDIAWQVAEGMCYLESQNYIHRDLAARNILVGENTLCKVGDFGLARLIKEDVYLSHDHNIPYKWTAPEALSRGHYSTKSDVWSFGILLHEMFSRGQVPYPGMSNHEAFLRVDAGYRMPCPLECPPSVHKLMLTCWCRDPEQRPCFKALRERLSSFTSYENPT

With `Cc1ccccc1-n1c(C(C)Nc2nc(N)nc3nc[nH]c23)nc2cccc(C)c2c1=O` (centres unmarked) [CAL-130] the “Percent of Control Binding” value (WEE1) was 100%, the “Percent of Control Binding” value (SNARK) was 100% and the “Percent of Control Binding” value (ZAK) was 100%. For the same compound, the “Percent of Control Binding” value (ARK5) was 100%, the “Percent of Control Binding” value (INSRR) was 100% and the “Percent of Control Binding” value (PKAC-α) was 100%. The “Percent of Control Binding” value (PIK3CD; PI3KCD (Table 2)) was 0.1%, the “Percent of Control Binding” value (PIK3CD; PIK3CD / PI3Kδ (Table 1)) was 0.2% and the “Percent of Control Binding” value (CDK5) was 100%. For the same compound, the “Percent of Control Binding” value (PRKCQ) was 100%, the “Percent of Control Binding” value (MAPKAPK5) was 100% and the “Percent of Control Binding” value (AMPK-α1) was 100%. For the same compound, the “Percent of Control Binding” value (RIPK2) was 100%, the “Percent of Control Binding” value (STK39) was 100% and the “Percent of Control Binding” value (PRKG2) was 100%. For the same compound, the “Percent of Control Binding” value (ERK5) was 100%, the “Percent of Control Binding” value (BRK) was 100% and the “Percent of Control Binding” value (BIKE) was 100%. For the same compound, the “Percent of Control Binding” value (HIPK2) was 100%, the “Percent of Control Binding” value (BRAF) was 100% and the “Percent of Control Binding” value (FLT1) was 100%. The “Percent of Control Binding” value (NEK5) was 100%, the “Percent of Control Binding” value (MST4) was 100% and the “Percent of Control Binding” value (LTK) was 100%. The “Percent of Control Binding” value (MEK1) was 100%, the “Percent of Control Binding” value (RPS6KA1) was 100% and the “Percent of Control Binding” value (EPHA5) was 100%. The “Percent of Control Binding” value (MAK) was 100%, the “Percent of Control Binding” value (NIM1) was 100% and the “Percent of Control Binding” value (TLK1) was 100%. The “Percent of Control Binding” value (MAP3K2) was 100%, the “Percent of Control Binding” value (AKT3) was 100% and the “Percent of Control Binding” value (RIPK4) was 100%. The “Percent of Control Binding” value (FLT3(ITD)) was 100%, the “Percent of Control Binding” value (ASK2) was 100% and the “Percent of Control Binding” value (TGFBR2) was 100%. For the same compound, the “Percent of Control Binding” value (SBK1) was 100% and the “Percent of Control Binding” value (CAMK2B) was 100%.
